Reference: publication PMC7645381, “Development and application of a high-throughput screening assay for identification of small molecule inhibitors of the P. falciparum reticulocyte binding-like homologue 5 protein” (International Journal for Parasitology: Drugs and Drug …, 2020)
Values joined by “and” are separate entries in the source; they are usually repeats but may differ in a detail not shown here. Equal entries are not always repeated. Where two headings read alike, the source gives them in different places.

What was measured:
[1] = AlphaScreen TruHits counterscreen assay; details: for % Inhibition Counter: TruHits counterscreen, single point, 10 μM in duplicate; for IC50: 11 pt titration, flag (POORFIT given as ~), read-out: Basigin_IC50_Counter_TruHits IC50
Procedure: The counterscreen assay was conducted using AlphaScreen TruHits kit (PerkinElmer). Biotinylated acceptor beads and Streptavidin donor beads were both diluted in assay buffer (final concentration of 10 μg/mL). Using the Combi-multidrop, 10 μL of each bead solution (20 μg/mL prepared in assay buffer) was added to every well of the assay plate under subdued lighting. Compound addition and assay readout was performed as described above.

[2] = test system: P. falciparum D10; experiment: P. falciparum D10 growth inhibition by flow cytometry; type: cell-based; details: for EC50: Plasmodium falciparum, D10, growth inhibition by flow cytometry, 12-point dilution series, 72 h
Procedure: Pranlukast and selected analogues were then evaluated in a P. falciparum parasite viability assay. For this assay, we followed the procedure described by [Gamo et al. (2010)], that used lactate dehydrogenase (LDH) as a readout for parasite viability. In this assay, 3D7 parasites were incubated over 72 h in the presence of increasing concentrations of compounds. […]. For a comparison, selected compounds were incubated in the presence of P. falciparum D10 parasites for 72 h (Table 1, Fig. S14) and growth inhibition measured by flow cytometry. […].

[3] = test system: D10-PfPHG parasites; experiment: Schizont rupture assay; type: cell-based, P. falciparum
Procedure: D10-PfPHG parasites ([Wilson et al., 2010]) were cultured in human O^+ erythrocytes in RPMI-HEPES culture medium (pH 7.4, 50 μg/mL hypoxanthine, 25 mM NaHCO3, 20 μg/mL gentamicin, 0.5% Albumax II (Thermo Fisher Scientific) according to established protocols ([Trager and Jensen, 1976]) and maintained in an atmosphere of 1% O2, 4% CO2 and 95% N2. For assessment of merozoite invasion after schizont rupture, parasites were tightly synchronised to a 4 h window of invasion using heparin ([Boyle et al., 2010]; [Wilson et al., 2015]) and then grown for a further 42 h. Drug treatments were setup at 2–3% parasitaemia and 1% haematocrit in 50 μL volumes with a 1 in 10 dilution of drug added when parasites were 44–48 h post invasion. After 6 h of drug treatment and immediately after invasion was expected to finish, the assays were treated with 5 μg/mL ethidium bromide (EtBr, Bio-Rad) for 5 min prior to flow cytometry assessment of parasitaemia using a Becton Dickinson Accuri. Gating of newly invaded rings, free merozoites and unruptured late stages was achieved as per published methods ([Wilson et al., 2013]).
To determine if the modest activity of pranlukast and analogues in the parasite viability assay was a consequence of invasion inhibition, rather than inhibition at another stage of blood stage parasite development, we performed an assay that measures the effect of compound treatment on P. falciparum D10 asexual stage transition between late schizont and ring stages ([Wilson et al., 2013]). In this assay, highly synchronised mature schizont-stage parasites were incubated with pranlukast and selected analogues at 50 and 100 μM and the transition to newly invaded ring stage parasites was quantified by flow cytometry. In parallel, the rate of schizont rupture and merozoite release was quantified to assess whether any reduction in newly invaded ring stages was due to a block affecting merozoite release or development. […] Neither DMSO (at the maximal concentration used for the drug treatments of 0.1%) or a non-invasion inhibitory mAb control caused a reduction in merozoite invasion. […] […].

[4] = test system: P. falciparum 3D7 parasites; experiment: P. falciparum parasite viability assay (LDH); type: cell-based
Procedure: A modified version of the lactate dehydrogenase (LDH) assay described by [Gamo et al. […] Compounds were pre-dispensed in 384-well plates, RPMI/Albumax growth media was added, and P. falciparum inoculated. Plates were incubated for 72 h and then frozen at −80 °C overnight. LDH activity was quantified with the modified cofactor 3-acetylpyridine adenine dinucleotide (APAD) (Sigma Aldrich) by measuring absorbance of the tetrazolium indicator nitro blue tetrazolium (NBT) (Sigma Aldrich) at 650 nm. Parasite conditions: […] Growth inhibition assay: […] Intermediate compound dilution plates were prepared by dispensing 5 μL from each well of the compound master plate into 11.5 μL of RPMI/Albumax growth media. Duplicate assay plates (384-well) were then prepared by dispensing 0.5 μL of compound from the intermediate dilution plates into 9.5 μL of RPMI/Albumax growth media. […] The final DMSO concentration was 0.1% (to limit toxicity to parasites). […] Evaluation of parasite growth measuring lactate dehydrogenase (LDH) activity: After 72 h of incubation, plates were frozen at −80 °C overnight and then thawed at room temperature for at least 4 h. […] Plates were shaken to ensure mixing and absorbance at 650 nm was monitored using a PerkinElmer Envision plate reader after 30 min of incubation at room temperature. Data were normalised to percent growth inhibition using positive and negative controls and analyzed using TIBCO Spotfire software.

[5] = test system: HepG2 cells; experiment: HepG2 growth inhibition assay; type: cell-based; details: Homo sapiens, 10-point dilution series, 48 h, Cell Titre-Glo
Procedure: HepG2 cells were cultured in Dulbeccos modified eagle's medium (DMEM) supplemented with 10% fetal calf serum (FCS), in a humidified incubator at 37 °C and 5% CO2. Ten-point compound titration assays were performed by treating cells (1 × 10^3) for 48 h in 384 well tissue culture treated plates (Greiner). Cytotoxicity was determined using Cell Titer Glo (Promega) and calculated as a percentage using DMSO as a positive growth control and 10 μM Bortezomib as a negative growth control. EC50 values were calculated using a 4-parameter log dose, non-linear regression analysis, with sigmoidal dose response (variable slope) curve fit using Graph Pad Prism (version 6.05). 0 and 100 constraint parameters were used for curve fitting. […]

[6] = molecular target: P. falciparum Rh5 (Rh5 – basigin interaction) (Plasmodium falciparum, UniProt Q8IFM5); experiment: biochemical; type: binding; details: for Rh5 inhibitory activity in the AlphaScreen assay: highest concentration tested 50 μM
P. falciparum Rh5 (Rh5 – basigin interaction), sequence (Q8IFM5 24-526): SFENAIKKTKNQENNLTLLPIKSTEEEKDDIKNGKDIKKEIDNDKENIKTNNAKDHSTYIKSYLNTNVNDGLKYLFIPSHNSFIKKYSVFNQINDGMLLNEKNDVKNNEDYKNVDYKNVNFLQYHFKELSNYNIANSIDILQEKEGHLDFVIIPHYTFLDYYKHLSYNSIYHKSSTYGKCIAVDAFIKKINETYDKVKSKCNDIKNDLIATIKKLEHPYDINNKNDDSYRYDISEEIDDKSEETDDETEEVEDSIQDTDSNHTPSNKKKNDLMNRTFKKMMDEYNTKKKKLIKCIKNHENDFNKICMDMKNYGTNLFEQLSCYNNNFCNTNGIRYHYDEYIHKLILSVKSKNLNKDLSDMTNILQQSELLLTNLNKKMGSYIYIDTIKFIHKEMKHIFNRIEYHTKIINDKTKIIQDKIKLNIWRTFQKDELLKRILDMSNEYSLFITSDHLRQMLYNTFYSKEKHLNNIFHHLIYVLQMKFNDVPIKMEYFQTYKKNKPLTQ

[7] = Basigin_IC50_Counter_Alpha counterscreen; details: 11 pt titration; flag (POORFIT given as ~)
From the text: Supplement mmc3.xlsx, sheet "Report" | column: Basigin_IC50_Counter_Alpha IC50

[8] = 50 and 100 μM, 6 h, flow cytometry
[9] = Plasmodium falciparum, 3D7, 72 h, LDH activity, 10-point dilution series, 72 h, read-out: P. falciparum 3D7 EC50
[10] = LDH activity, 10-point dilution series, 72 h, read-out: P. falciparum 3D7 EC50
[11] = 11 pt titration of the 45 hits, flag (POORFIT given as ~), two lines per compound, read-out: Basigin_IC50_Assay_Alpha IC50

| Compound | EC50 [2] [µM] | free merozoite numbers [3, 8] | merozoite invasion (newly invaded early ring stages) [3, 8] | EC50 [4, 9] [µM] | EC50 [5] [µM] | IC50 [6] [µM] | other results |
| --- | --- | --- | --- | --- | --- | --- | --- |
| Oc1c(Cl)cc(Cl)c(Cl)c1Cc1c(O)c(Cl)cc(Cl)c1Cl [WEHI-0104268, Hexachlorophene, reference compound] | – | – | – | – | – | – | % Inhibition Counter [1]: 28.8475% |
| O=C(Nc1cccc2c(=O)cc(C(=O)O)oc12)c1ccc(OCCCCc2ccccc2)cc1 [Compound 18, 4-Oxo-8-(4-(4-phenylbutoxy)benzamido)-4H-chromene-2-carboxylic acid] | 42 | similarly reduced numbers of free merozoites | reduction in numbers of merozoites that had invaded and formed early ring stages | > 50 | > 50 | 21 | – |
| O.c1cnc2c(c1)ccc1cccnc12 [WEHI-1215482, 1,10-Phenanthroline monohydrate, reference compound] | – | – | – | – | – | – | % Inhibition Counter [1]: 2.663%; inhibition at 10 µM ([6]; read-out: % Inhibition Confirmation): 99.6% |
| O=C(Nc1cccc2c(=O)cc(C(=O)O)oc12)c1ccc(OCCc2ccccc2)cc1 [Compound 16, 4-Oxo-8-(4-phenethoxybenzamido)-4H-chromene-2-carboxylic acid] | 6.7 | – | substantial reduction in the numbers of merozoites that had invaded and formed early ring stages | 40 | > 50 | 40 | fold more active against the D10 strain than the 3D7 strain ([2]; EC50 D10 vs 3D7): 5 fold; free merozoite numbers ([3]; lowest concentration tested (50 μM)): minimal loss in free merozoite numbers; EC50 [4, 10]: 37 µM |
| O=C(Nc1cccc2c(=O)cc(C(=O)O)oc12)c1ccc(OCCCc2ccccc2)cc1 [Compound 17, 4-Oxo-8-(4-(3-phenylpropoxy)benzamido)-4H-chromene-2-carboxylic acid] | 19 | no reduction in free merozoite numbers | minimal inhibition of merozoite invasion | 15 | > 50 | 24 | – |
| CCCN1CCc2cc(O)cc3c2[C@H]1Cc1ccc(O)c(O)c1-3 [WEHI-1215052] | – | – | – | – | – | – | IC50 [1]: > 25 µM; IC50 [7]: > 25 µM; IC50 [6, 11]: 7.45 µM and 8.43 µM |
| COc1ccc(C(=O)Nc2cccc3c(=O)cc(-c4nn[nH]n4)oc23)cc1 [Compound 24, 4-Methoxy-N-(4-oxo-2-(2H-tetrazol-5-yl)-4H-chromen-8-yl)benzamide] | – | – | – | 25 | > 50 | > 50 | – |
| CCN(CC)CCCC(C)Nc1ccnc2cc(Cl)ccc12 (stereo not shown) [Chloroquine, reference compound] | – | – | – | – | – | – | EC50 ([4]; Plasmodium falciparum, 3D7, 72 h, read-out: P. falciparum 3D7 EC50, control, LDH activity, 72 h): 0.018 µM |
| O=C(Nc1cccc2c(=O)cc(-c3nn[nH]n3)oc12)c1ccc(OCCCc2ccccc2)cc1 [Compound 25, N-(4-Oxo-2-(2H-tetrazol-5-yl)-4H-chromen-8-yl)-4-(3-phenylpropoxy)benzamide] | – | – | – | 7 | > 50 | 20 | EC50 [4, 10]: 7.3 µM |
| CN1CCc2cc(O)cc3c2[C@H]1Cc1ccc(O)c(O)c1-3 [WEHI-1215043] | – | – | – | – | – | – | IC50 [1]: > 25 µM; IC50 [7]: > 25 µM; IC50 [6, 11]: 4.02 µM and 4.98 µM |
| C[C@H]1CCC/C=C/[C@@H]2C[C@H](O)C[C@H]2[C@H](O)/C=C/C(=O)O1 [Brefeldin A, reference compound] | – | – | – | 3.5 | – | – | – |
| CCCc1c(OCC(O)COc2ccc3c(=O)cc(C(=O)O)oc3c2CCC)ccc(C(C)=O)c1O (stereo not shown) [FPL 55712, reference compound] | – | – | – | – | > 50 | – | EC50 ([4]; Plasmodium falciparum, 3D7, 72 h, read-out: P. falciparum 3D7 EC50): > 50 µM |
| cDPCP [WEHI-1215640, reference compound] | – | – | – | – | – | – | % Inhibition Counter [1]: 2.1075% |
| COc1cc(C(=O)NS(=O)(=O)c2ccccc2C)ccc1Cc1cn(C)c2ccc(NC(=O)OC3CCCC3)cc12 [zafirlukast, reference compound] | – | – | – | 6 | > 50 | 17 | EC50 [4, 10]: 5.9 µM; Rh5 inhibitory activity in the AlphaScreen assay [6]: possess inhibitory activity |
| O=C([O-])c1ccccc1-c1c2cc(Br)c(=O)cc-2oc2[c]([Hg+])c([O-])c(Br)cc12.[Na+].[Na+].[OH-] [WEHI-1216497, Merbromin, reference compound] | – | – | – | – | – | – | % Inhibition Counter [1]: 29.2235%; % Inhibition Confirmation ([6]; confirmation, single point, 10 μM in duplicate): 100.385%; % Inhibition Pilot ([6]; primary screen, 20 μM): 100.87% |
| CCC(CC)(CC(=O)Nc1cccc(/C=C/c2nc(C3CCC3)cs2)c1)C(=O)O [cinalukast, reference compound] | 32 | similarly reduced numbers of free merozoites | reduction in numbers of merozoites that had invaded and formed early ring stages | – | > 50 | > 50 | Rh5 inhibitory activity in the AlphaScreen assay [6]: did not show Rh5 inhibitory activity |
| heparin | – | not free merozoites | reduction in the number of early rings stage parasites | – | – | – | – |
| O=C(O)c1ccccc1Nc1cccc(OCc2ccc3ccccc3n2)c1 [SR2540, reference compound] | 6.1 | similarly reduced numbers of free merozoites | reduction in numbers of merozoites that had invaded and formed early ring stages | – | > 50 | > 50 | increase in unruptured schizonts ([3]; at the concentrations tested (50 and 100 μM)): > 40% |
| CCOC(=O)c1cc(=O)c2cccc(NC(=O)c3ccc(OCCCc4ccccc4)cc3)c2o1 [Compound 13, Ethyl 4-oxo-8-(4-(3-phenylpropoxy)benzamido)-4H-chromene-2-carboxylate] | > 50 | no reduction in free merozoite numbers | minimal inhibition of merozoite invasion | > 50 | > 50 | > 50 | – |
| COc1ccc(C(=O)Nc2cccc3c(=O)cc(C(=O)O)oc23)cc1 [Compound 21, 8-(4-Methoxybenzamido)-4-oxo-4H-chromene-2-carboxylic acid] | – | – | – | > 50 | > 50 | > 50 | Rh5 inhibitory activity in the AlphaScreen assay [6]: No activity |
